Results reported in ChEMBL document CHEMBL1156313, “Structure-activity relationship of novel DAPK inhibitors identified by structure-based virtual screening” (Bioorg Med Chem, 2010).
One block for each compound: values may come before it.

What was measured:
[1] = molecular target: T1, Death-associated protein kinase 3 (Homo sapiens, UniProt O43293); test: Inhibition of human recombinant DAPK3 at 1 uM
Target sequence in this assay (O43293 whole entry, looked up): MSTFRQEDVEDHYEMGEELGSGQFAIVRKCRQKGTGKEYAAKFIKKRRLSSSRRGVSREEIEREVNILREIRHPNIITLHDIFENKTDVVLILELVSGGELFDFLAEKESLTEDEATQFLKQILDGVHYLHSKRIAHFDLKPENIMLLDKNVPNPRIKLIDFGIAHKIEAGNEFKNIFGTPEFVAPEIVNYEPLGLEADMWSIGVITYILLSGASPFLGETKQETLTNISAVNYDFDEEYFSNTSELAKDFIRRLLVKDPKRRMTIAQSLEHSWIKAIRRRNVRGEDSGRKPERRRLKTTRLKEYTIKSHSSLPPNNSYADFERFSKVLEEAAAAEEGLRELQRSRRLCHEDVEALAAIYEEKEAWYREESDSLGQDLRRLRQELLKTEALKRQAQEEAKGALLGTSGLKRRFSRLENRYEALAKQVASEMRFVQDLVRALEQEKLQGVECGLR

[2] = molecular target: T1, Death-associated protein kinase 3; test: Inhibition of human recombinant DAPK3
Target sequence in this assay (O43293 whole entry): as the sequence (O43293 whole entry, looked up) above

[3] = molecular target: T1, Death-associated protein kinase 3; test: Inhibition of human recombinant DAPK3 at 10 uM
Target sequence in this assay (O43293 whole entry, looked up): as above

[4] = molecular target: Mitogen-activated protein kinase 3 (Homo sapiens) (UniProt P27361); test: Inhibition of ERK1 at 10 uM
[5] = molecular target: RAC-alpha serine/threonine-protein kinase (Homo sapiens) (UniProt P31749); test: Inhibition of AKT1 at 10 uM
Sequence of RAC-alpha serine/threonine-protein kinase (Homo sapiens) (P31749 whole entry): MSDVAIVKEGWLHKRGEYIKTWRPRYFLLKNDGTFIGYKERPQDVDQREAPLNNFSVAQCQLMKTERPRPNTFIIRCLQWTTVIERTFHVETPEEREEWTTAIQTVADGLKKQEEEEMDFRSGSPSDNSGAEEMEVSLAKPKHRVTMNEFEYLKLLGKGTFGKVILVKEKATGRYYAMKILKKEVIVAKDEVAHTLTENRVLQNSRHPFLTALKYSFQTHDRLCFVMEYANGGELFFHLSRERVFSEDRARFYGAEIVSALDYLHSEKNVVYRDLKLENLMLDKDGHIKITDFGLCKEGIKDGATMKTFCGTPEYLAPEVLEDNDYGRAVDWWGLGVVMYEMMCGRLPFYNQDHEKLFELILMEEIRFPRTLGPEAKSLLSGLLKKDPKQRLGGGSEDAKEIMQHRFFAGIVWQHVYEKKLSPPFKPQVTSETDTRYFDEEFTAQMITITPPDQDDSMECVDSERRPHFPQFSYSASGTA

[6] = molecular target: Mitogen-activated protein kinase 14 (Homo sapiens) (UniProt Q16539); test: Inhibition of P38alpha at 10 uM
Sequence of Mitogen-activated protein kinase 14 (Homo sapiens) (Q16539 whole entry): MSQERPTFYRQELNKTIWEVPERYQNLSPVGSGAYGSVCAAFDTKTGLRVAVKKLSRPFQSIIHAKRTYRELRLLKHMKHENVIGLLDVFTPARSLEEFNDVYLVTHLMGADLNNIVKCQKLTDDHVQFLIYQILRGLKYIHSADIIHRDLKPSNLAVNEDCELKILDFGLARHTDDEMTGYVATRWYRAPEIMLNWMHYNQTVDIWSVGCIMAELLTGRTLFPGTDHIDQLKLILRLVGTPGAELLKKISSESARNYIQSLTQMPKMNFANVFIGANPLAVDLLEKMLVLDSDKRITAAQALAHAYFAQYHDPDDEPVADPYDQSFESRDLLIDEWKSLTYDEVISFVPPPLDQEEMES

[7] = molecular target: RAC-beta serine/threonine-protein kinase (Homo sapiens) (UniProt P31751); test: Inhibition of AKT2 at 10 uM
[8] = molecular target: Tyrosine-protein kinase ABL1 (Homo sapiens) (UniProt P00519); test: Inhibition of ABL at 10 uM
Sequence of Tyrosine-protein kinase ABL1 (Homo sapiens) (P00519 whole entry): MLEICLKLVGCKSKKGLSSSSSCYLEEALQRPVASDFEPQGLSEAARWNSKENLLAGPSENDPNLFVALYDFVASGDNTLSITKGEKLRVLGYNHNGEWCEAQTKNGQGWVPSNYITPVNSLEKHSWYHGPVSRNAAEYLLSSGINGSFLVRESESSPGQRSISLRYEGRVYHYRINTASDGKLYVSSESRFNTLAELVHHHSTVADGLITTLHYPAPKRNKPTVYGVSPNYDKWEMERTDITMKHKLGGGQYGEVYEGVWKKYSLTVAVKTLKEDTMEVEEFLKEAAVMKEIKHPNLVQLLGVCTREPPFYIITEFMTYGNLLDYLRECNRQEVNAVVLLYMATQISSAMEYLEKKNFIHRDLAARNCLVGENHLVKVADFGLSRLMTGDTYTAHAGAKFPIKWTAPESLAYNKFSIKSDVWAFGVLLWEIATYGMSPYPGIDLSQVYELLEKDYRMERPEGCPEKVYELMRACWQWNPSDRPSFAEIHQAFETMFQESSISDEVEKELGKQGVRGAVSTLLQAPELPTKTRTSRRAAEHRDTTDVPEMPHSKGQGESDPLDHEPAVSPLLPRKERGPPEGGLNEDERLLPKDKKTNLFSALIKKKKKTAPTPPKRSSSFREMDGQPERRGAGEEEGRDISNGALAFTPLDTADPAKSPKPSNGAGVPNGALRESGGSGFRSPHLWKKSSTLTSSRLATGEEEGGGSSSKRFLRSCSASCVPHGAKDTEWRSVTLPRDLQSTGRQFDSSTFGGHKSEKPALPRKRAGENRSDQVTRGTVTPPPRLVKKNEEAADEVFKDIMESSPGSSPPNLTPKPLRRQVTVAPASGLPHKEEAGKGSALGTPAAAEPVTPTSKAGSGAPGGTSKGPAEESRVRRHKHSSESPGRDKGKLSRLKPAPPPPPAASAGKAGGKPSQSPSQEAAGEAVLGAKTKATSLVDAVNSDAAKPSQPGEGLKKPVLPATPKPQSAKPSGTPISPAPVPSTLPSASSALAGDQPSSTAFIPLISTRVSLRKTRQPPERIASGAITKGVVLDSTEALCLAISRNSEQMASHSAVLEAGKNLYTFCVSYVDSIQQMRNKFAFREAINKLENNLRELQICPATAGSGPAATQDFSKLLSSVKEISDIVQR

[9] = molecular target: T2, Serine/threonine-protein kinase Chk1 (Homo sapiens) (UniProt O14757); test: Inhibition of CHK1 at 10 uM
T2 sequence (whole entry): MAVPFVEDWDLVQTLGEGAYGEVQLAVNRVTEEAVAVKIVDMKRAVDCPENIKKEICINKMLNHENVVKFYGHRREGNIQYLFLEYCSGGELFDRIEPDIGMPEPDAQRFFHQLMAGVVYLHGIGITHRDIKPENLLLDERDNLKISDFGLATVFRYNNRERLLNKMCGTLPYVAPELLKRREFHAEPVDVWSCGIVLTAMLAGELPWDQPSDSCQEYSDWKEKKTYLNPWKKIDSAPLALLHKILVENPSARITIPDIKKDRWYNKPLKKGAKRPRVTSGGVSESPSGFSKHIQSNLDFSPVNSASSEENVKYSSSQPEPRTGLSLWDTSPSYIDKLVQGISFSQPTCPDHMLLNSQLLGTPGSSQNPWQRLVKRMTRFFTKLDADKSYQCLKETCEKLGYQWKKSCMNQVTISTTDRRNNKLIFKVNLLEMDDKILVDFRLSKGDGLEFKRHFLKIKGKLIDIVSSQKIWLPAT

[10] = molecular target: MAP kinase-activated protein kinase 2 (Homo sapiens) (UniProt P49137); test: Inhibition of MAPKAPK2 at 10 uM
Sequence of MAP kinase-activated protein kinase 2 (Homo sapiens) (P49137 whole entry, looked up): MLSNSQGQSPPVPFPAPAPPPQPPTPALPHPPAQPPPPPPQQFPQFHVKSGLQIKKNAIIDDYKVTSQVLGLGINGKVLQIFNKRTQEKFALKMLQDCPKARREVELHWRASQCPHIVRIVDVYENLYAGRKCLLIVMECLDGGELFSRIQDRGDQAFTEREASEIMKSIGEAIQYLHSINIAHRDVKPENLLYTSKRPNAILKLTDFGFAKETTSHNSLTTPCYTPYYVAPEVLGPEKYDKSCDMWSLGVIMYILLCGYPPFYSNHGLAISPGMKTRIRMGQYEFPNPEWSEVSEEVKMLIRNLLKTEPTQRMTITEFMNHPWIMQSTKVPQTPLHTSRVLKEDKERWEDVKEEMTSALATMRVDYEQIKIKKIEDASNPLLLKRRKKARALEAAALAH

[11] = molecular target: T3, Aurora kinase A (Homo sapiens) (UniProt O14965); test: Inhibition of Aurora A at 10 uM
T3 sequence (whole entry): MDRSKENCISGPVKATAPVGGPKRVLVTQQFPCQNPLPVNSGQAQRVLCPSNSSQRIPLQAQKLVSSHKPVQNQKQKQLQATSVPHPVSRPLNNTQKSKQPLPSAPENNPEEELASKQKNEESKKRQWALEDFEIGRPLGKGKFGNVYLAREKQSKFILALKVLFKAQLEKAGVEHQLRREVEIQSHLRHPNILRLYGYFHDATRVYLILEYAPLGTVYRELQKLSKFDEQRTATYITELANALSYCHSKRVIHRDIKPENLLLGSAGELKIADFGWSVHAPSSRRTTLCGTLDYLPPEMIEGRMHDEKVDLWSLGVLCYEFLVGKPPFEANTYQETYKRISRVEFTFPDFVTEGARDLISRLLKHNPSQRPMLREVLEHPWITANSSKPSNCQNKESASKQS

[12] = molecular target: T4, Protein kinase C zeta type (Homo sapiens) (UniProt Q05513); test: Inhibition of PKCzeta at 10 uM
T4 sequence (whole entry): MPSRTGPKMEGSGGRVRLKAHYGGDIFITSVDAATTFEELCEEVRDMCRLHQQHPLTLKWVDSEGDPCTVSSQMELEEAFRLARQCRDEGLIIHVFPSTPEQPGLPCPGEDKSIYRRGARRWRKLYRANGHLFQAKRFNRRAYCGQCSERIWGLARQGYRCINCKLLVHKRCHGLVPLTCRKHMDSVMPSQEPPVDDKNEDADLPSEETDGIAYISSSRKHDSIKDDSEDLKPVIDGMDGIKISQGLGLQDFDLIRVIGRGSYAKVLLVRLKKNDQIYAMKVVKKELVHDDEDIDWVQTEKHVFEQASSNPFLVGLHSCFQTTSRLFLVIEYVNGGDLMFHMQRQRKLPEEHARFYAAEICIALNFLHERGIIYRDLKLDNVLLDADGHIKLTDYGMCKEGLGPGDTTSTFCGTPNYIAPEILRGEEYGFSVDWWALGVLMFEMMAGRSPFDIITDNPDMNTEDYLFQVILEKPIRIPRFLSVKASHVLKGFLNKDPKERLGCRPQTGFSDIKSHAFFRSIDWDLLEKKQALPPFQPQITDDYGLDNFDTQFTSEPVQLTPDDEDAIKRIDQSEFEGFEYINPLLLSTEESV

[13] = molecular target: Ribosomal protein S6 kinase alpha-1 (Homo sapiens) (UniProt Q15418); test: Inhibition of RSK1 at 10 uM
Sequence of Ribosomal protein S6 kinase alpha-1 (Homo sapiens) (Q15418 whole entry): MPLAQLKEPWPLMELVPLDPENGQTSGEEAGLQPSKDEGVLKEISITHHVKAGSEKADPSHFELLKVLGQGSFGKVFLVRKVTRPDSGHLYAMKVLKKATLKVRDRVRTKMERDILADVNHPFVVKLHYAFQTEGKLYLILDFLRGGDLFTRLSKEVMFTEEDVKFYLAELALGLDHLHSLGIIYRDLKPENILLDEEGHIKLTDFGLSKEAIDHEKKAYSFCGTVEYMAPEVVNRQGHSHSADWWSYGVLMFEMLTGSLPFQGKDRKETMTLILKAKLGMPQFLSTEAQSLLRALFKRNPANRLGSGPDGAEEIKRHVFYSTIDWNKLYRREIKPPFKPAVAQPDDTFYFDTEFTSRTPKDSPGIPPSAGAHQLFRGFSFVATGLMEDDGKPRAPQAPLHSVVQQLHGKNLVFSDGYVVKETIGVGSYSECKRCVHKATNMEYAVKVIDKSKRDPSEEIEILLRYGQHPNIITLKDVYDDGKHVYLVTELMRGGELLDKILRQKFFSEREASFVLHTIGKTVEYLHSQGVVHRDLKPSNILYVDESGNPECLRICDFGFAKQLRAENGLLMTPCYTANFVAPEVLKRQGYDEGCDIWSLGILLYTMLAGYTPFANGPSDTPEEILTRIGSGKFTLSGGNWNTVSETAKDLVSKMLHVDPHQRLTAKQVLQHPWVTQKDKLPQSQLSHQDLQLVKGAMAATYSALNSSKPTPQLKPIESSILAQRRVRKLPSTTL

[14] = molecular target: Insulin receptor (Homo sapiens) (UniProt P06213); test: Inhibition of INSR at 10 uM
Sequence of Insulin receptor (Homo sapiens) (P06213 28-758 limits assumed): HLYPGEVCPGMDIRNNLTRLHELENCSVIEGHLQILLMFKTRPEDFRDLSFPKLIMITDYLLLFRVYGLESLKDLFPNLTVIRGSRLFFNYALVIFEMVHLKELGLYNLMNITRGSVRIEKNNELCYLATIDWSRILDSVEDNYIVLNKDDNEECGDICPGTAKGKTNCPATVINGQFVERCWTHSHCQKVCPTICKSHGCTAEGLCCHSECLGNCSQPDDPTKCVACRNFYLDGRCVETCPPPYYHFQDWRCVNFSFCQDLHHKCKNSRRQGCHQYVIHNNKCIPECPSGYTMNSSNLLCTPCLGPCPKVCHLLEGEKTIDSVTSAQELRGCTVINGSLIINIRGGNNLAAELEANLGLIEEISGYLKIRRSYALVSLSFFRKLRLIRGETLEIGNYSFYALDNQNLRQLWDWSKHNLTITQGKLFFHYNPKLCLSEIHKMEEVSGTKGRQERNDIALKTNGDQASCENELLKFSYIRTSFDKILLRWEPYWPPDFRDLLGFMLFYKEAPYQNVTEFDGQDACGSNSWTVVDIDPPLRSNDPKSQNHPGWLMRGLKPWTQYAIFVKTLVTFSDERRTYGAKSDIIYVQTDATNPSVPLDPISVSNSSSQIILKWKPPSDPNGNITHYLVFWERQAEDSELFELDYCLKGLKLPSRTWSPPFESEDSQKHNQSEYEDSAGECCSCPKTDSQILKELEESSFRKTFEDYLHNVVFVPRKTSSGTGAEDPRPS
Sequence of Insulin receptor (Homo sapiens) (P06213 763-1382 limits assumed): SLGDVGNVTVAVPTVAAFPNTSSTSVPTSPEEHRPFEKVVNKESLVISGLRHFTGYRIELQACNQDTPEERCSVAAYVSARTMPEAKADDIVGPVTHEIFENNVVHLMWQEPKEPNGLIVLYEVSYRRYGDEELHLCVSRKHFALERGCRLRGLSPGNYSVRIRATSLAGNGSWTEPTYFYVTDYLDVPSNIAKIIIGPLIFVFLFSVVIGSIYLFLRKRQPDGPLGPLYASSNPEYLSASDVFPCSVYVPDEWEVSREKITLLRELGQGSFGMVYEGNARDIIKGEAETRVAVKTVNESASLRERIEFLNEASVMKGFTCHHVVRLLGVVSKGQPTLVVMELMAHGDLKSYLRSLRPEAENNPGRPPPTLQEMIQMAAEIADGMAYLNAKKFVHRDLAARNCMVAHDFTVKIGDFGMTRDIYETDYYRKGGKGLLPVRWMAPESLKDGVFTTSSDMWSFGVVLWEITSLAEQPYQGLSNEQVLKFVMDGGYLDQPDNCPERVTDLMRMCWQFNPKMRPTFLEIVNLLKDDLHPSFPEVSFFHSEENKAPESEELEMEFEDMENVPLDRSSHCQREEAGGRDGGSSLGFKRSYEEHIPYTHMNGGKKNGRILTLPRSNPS

[15] = molecular target: Proto-oncogene tyrosine-protein kinase Src (Homo sapiens) (UniProt P12931); test: Inhibition of SRC at 10 uM
[16] = molecular target: T5, Serine/threonine-protein kinase D2 (Homo sapiens) (UniProt Q9BZL6); test: Inhibition of PKD2 at 10 uM
T5 sequence (whole entry): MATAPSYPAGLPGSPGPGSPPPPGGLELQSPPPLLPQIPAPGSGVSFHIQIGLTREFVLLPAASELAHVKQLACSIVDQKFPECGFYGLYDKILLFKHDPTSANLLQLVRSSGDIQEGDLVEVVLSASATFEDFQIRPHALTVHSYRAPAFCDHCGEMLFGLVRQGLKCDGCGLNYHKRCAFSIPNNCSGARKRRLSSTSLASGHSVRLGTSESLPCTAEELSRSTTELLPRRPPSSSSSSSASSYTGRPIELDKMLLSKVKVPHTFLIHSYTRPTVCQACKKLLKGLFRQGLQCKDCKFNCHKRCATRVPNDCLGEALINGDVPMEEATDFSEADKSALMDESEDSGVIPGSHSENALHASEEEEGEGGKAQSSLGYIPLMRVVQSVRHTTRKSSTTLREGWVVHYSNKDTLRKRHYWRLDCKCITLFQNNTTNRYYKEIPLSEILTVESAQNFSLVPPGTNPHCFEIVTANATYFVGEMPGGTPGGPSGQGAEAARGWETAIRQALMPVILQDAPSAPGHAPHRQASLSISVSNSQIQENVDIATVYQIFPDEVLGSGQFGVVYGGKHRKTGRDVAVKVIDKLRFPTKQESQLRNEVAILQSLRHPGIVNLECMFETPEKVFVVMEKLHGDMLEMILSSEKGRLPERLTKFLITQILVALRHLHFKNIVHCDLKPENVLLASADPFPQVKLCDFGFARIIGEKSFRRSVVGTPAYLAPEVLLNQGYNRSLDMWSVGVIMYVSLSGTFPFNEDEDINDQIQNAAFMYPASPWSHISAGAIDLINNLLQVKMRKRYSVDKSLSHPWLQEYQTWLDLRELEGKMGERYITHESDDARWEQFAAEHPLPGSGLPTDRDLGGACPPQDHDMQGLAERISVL

[17] = molecular target: Death-associated protein kinase 1 (Homo sapiens) (UniProt P53355); test: Inhibition of DAPK1 at 10 uM
[18] = molecular target: Tyrosine-protein kinase Lck (Homo sapiens) (UniProt P06239); test: Inhibition of LCK at 10 uM
[19] = molecular target: Hepatocyte growth factor receptor (Homo sapiens) (UniProt P08581); test: Inhibition of MET at 10 uM
[20] = molecular target: Mitogen-activated protein kinase 1 (Homo sapiens) (UniProt P28482); test: Inhibition of ERK2 at 10 uM
[21] = molecular target: Glycogen synthase kinase-3 beta (Homo sapiens) (UniProt P49841); test: Inhibition of GSK3-beta at 10 uM
[22] = molecular target: Serine/threonine-protein kinase Chk2 (Homo sapiens) (UniProt O96017); test: Inhibition of CHK2 at 10 uM
[23] = molecular target: Tyrosine-protein kinase Fyn (Homo sapiens) (UniProt P06241); test: Inhibition of FYN at 10 uM
[24] = molecular target: Tyrosine-protein kinase Lyn (Homo sapiens) (UniProt P07948); test: Inhibition of LYN at 10 uM
[25] = molecular target: MAP kinase-activated protein kinase 5 (Homo sapiens) (UniProt Q8IW41); test: Inhibition of PRAK at 10 uM
[26] = Inhibition of PKA at 10 uM

Structure (SMILES): O=C1OC(c2cccc(Br)c2)=N/C1=C\c1cccnc1
inhibition [1]: 100% | IC50 [2]: 148 nM | inhibition [3]: 100%

Structure (SMILES): O=C1OC(c2ccccc2)=N/C1=C\c1ccncc1
inhibition [1]: 0% | inhibition [3]: 1%

Structure (SMILES): O=C1OC(C23CC4CC(CC(C4)C2)C3)=N/C1=C\c1cccnc1
inhibition [3]: 45%

inhibition [4]: 0% | inhibition [5]: 5% | inhibition [6]: 1% | inhibition [7]: 6% | inhibition [8]: 1% | inhibition [9]: 5% | inhibition [10]: 3% | inhibition [11]: 3% | inhibition [12]: 2% | inhibition [13]: 15% | inhibition [14]: 3% | inhibition [15]: 5% | inhibition [16]: 1%
Structure (SMILES): Cc1cccc(C2=N/C(=C\c3cccnc3)C(=O)O2)c1
inhibition [1]: 68% | IC50 [2]: 714 nM | inhibition [3]: 96% | inhibition [17]: 98%

Structure (SMILES): O=C1N=C(N2CCCCC2)S/C1=C\c1cccnc1
inhibition [3]: 29%

Structure (SMILES): O=C1OC(c2cccc([N+](=O)[O-])c2)=N/C1=C\c1ccncc1
inhibition [1]: 0% | inhibition [3]: 0%

Structure (SMILES): O=C1OC(c2ccc([N+](=O)[O-])cc2)=N/C1=C\c1ccncc1
inhibition [1]: 0% | inhibition [3]: 2%

Structure (SMILES): O=C1OC(c2cccc(Br)c2)=N/C1=C\c1ccncc1
inhibition [1]: 1% | inhibition [3]: 0%

Structure (SMILES): Cc1ccc(C2=N/C(=C\c3cccnc3)C(=O)O2)cc1[N+](=O)[O-]
inhibition [1]: 72% | IC50 [2]: 534 nM | inhibition [3]: 90%

Structure (SMILES): COc1ccc(C2=N/C(=C\c3cccnc3)C(=O)O2)cc1OC
inhibition [1]: 14% | inhibition [3]: 36%

Structure (SMILES): COc1ccc(C2=N/C(=C\c3cccnc3)C(=O)O2)c(Br)c1
inhibition [1]: 100% | IC50 [2]: 157 nM | inhibition [3]: 92%

Structure (SMILES): O=C1OC(c2ccc(Cl)c([N+](=O)[O-])c2)=N/C1=C\c1ccncc1
inhibition [1]: 0% | inhibition [3]: 10%

Structure (SMILES): O=C1OC(c2ccc(Cl)cc2)=C/C1=C\c1cccnc1
inhibition [3]: 3%

inhibition [4]: 16% | inhibition [5]: 12% | inhibition [18]: 9% | inhibition [6]: 3% | inhibition [7]: 13% | inhibition [8]: 16% | inhibition [19]: 3% | inhibition [9]: 3% | inhibition [10]: 5% | inhibition [11]: 6% | inhibition [20]: 7% | inhibition [12]: 3% | inhibition [13]: 5% | inhibition [21]: 9% | inhibition [22]: 4% | inhibition [14]: 7% | inhibition [23]: 6% | inhibition [24]: 10% | inhibition [15]: 13% | inhibition [16]: 7%
Structure (SMILES): O=C1OC(c2ccccc2)=N/C1=C\c1cccnc1
IC50 [2]: 583 nM | inhibition [17]: 98%

inhibition [4]: 18% | inhibition [5]: 12% | inhibition [6]: 5% | inhibition [7]: 28% | inhibition [8]: 7% | inhibition [9]: 5% | inhibition [10]: 2% | inhibition [11]: 16% | inhibition [12]: 5% | inhibition [13]: 13% | inhibition [25]: 10% | inhibition [22]: 19% | inhibition [14]: 0% | inhibition [23]: 9% | inhibition [24]: 0% | inhibition [15]: 2% | inhibition [16]: 11% | inhibition [26]: 19%
Structure (SMILES): Cc1cc(C2=N/C(=C\c3cccnc3)C(=O)O2)ccc1Br
inhibition [1]: 88% | IC50 [2]: 278 nM | inhibition [3]: 94% | inhibition [17]: 82%

Structure (SMILES): COc1cc(C2=N/C(=C\c3cccnc3)C(=O)O2)cc(OC)c1OC
inhibition [1]: 26% | inhibition [3]: 33%

Structure (SMILES): O=C1OC(c2ccc([N+](=O)[O-])cc2)=N/C1=C\c1cccnc1
inhibition [1]: 90% | IC50 [2]: 291 nM | inhibition [3]: 94%

Structure (SMILES): COc1ccc(C2=N/C(=C\c3cccnc3)C(=O)O2)cc1Br
inhibition [1]: 32% | inhibition [3]: 32%

Structure (SMILES): O=C1OC(c2ccccc2)=N/C1=C\c1ccccc1
inhibition [3]: 4%

Structure (SMILES): O=C1OC(c2cc(I)ccc2Cl)=N/C1=C\c1ccncc1
inhibition [1]: 83% | IC50 [2]: 227 nM | inhibition [3]: 97%

Structure (SMILES): COc1cccc(C2=N/C(=C\c3cccnc3)C(=O)O2)c1
inhibition [1]: 99% | IC50 [2]: 395 nM | inhibition [3]: 100%

inhibition [4]: 25% | inhibition [5]: 12% | inhibition [18]: 3% | inhibition [6]: 8% | inhibition [7]: 18% | inhibition [9]: 7% | inhibition [11]: 8% | inhibition [20]: 34% | inhibition [12]: 8% | inhibition [21]: 0% | inhibition [22]: 7% | inhibition [14]: 7% | inhibition [23]: 2% | inhibition [24]: 2% | inhibition [15]: 6% | inhibition [16]: 3% | inhibition [26]: 2%
Structure (SMILES): O=C1OC(c2ccc(F)c(F)c2)=N/C1=C\c1cccnc1
inhibition [1]: 89% | IC50 [2]: 346 nM | inhibition [3]: 98% | inhibition [17]: 97%

Structure (SMILES): O=C1OC(c2ccc(Cl)cc2Cl)=N/C1=C\c1cccnc1
inhibition [1]: 42% | inhibition [3]: 78%

Structure (SMILES): O=C1OC(c2cccc(Cl)c2)=N/C1=C\c1cccnc1
inhibition [1]: 85% | IC50 [2]: 360 nM | inhibition [3]: 97%

Structure (SMILES): O=C1OC(c2ccc(Cl)c([N+](=O)[O-])c2)=N/C1=C\c1cccnc1
inhibition [1]: 100% | IC50 [2]: 278 nM | inhibition [3]: 100%
